Consider five molecules from patent US9120762B2, “Salts of bicyclo-substituted pyrazolon azo derivatives, preparation method and use thereof” (Jiangsu Hengrui Medicine Co., Ltd., priority 2009, dated 2015).

Values after ≈ are worked out from the molar mass of the structure shown. Read-outs that look alike come from different tables or passages of the source.

The nature of series [1]: Pharmacokinetics assay in rats. It is filed as in vivo, SD rats. To be noted: 50 mg/kg, SD rats, intragastric, 50 mg/Kg (as free acid); for Vd/F / AUC / CL/F / half-life / MRT / Cmax / Tmax: both sexes, SD, rat, plasma, po; for Vd/F: read-out: Apparent Distribution Volume Vz/F; for AUC: read-out: Area Under Curve AUC; for CL/F: read-out: Clearance CL/F (converted); for half-life: read-out: Half-Life t½ (converted); for MRT: read-out: Mean Residence Time MRT; for Cmax: read-out: Plasma Conc. Cmax; for Tmax: read-out: Time to peak Tmax. The method, then:
The compounds of the present disclosure were administrated intragastrically to rats to determine the drug concentration in plasma at different time points by HPLC-UV. The pharmacokinetic behavior of the compounds of the present disclosure was studied and evaluated in rats. […] Healthy adult SD rats, male and female in half, were purchased from SINO-BRITSH SIPPR/BK LAB.ANIMAL LTD., Colo., License number: SCXK (Shanghai) 2003-0002 The test compound was diluted with 1% sodium carboxymethyl cellulose to 5 mg/mL (calculated as the free acid form) of suspension before use. Healthy adult SD rats, male and female in half, were divided into 23 groups. […] The plasma samples were stored at −20° C. until analysis. The rats were fed 2 hours after administration. […] Then the mixture was mixed for 3 minute using a vortexer and centrifuged for 10 minutes at 13,500 rpm. 40 μL of the supernatant was analyzed by HPLC-UV. The compartmental model of pharmacokinetics was fitted for the test compounds and the major pharmacokinetic parameters were calculated in which Cmax and tmax were the actually measured values.

A short description of series [2]: Solubility assay in water, 0.1% hydrochloric acid and methanol. It is filed as physicochemical. How it is done: The solubility was characterized by:
The term “very soluble” refers to that 1 g (mL) of solute can be dissolved in less than 1 mL of solvent;
The term “freely soluble” refers to that 1 g (mL) of solute can be dissolved in from 1 mL to 10 mL, not including 10 mL of solvent;
The term “soluble” refers to that 1 g (mL) of solute can be dissolved in from 10 mL to 30 mL, not including 30 mL of solvent;
The term “sparingly soluble” refers to that 1g (mL) of solute can be dissolved in from 30 mL to 100 mL, not including 100 mL of solvent;
The term “slightly soluble” refers to that 1g (mL) of solute can be dissolved in from 100 mL to 1000 mL, not including 1000 mL of solvent;
The term “very slightly soluble” refers to that 1g (mL) of solute can be dissolved in from 1000 mL to 10000 mL, not including 10000 mL of solvent;
The term “practically insoluble or insoluble” refers to that 1g (mL) of solute cannot be dissolved completely in 10000 mL of solvent.

The target of the next series is T1, human TPOR (Homo sapiens, UniProt P40238).
T1 construct: host or cells: BaF3 (murine pro-B cells), stably transfected, G418-selected
T1 sequence (P40238 26-635): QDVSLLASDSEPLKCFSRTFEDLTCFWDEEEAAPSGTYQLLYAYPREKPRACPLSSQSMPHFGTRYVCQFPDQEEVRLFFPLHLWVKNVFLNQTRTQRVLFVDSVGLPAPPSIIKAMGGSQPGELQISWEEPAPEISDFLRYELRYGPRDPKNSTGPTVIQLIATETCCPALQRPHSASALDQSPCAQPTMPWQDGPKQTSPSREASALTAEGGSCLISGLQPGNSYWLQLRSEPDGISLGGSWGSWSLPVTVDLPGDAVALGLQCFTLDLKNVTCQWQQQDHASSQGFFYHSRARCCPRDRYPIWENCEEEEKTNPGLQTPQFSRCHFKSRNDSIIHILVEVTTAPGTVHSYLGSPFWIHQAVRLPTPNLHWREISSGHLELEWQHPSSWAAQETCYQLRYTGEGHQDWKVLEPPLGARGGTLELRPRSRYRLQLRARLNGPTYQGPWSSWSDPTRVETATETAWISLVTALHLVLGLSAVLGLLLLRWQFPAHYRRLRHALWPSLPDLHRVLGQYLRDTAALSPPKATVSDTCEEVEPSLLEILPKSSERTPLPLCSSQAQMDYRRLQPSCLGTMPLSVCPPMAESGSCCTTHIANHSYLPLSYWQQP
The experiment in a line: Proliferation effect on BAF3-TPOR cell (CCK-8). It is filed as cell-based. The conditions noted are these: rate relative to rhTPO positive control. The method, then:
(1) Plasmid constructs: based on the TPO receptor (TPOR) sequence information from Entrez (Gene ID: 4325, Refseq: NM_005373), dual-site mutation was performed on EX-B0010-M02 plasmid by using QuikChange® Multi Site Directed Mutagenesis Kit (Stratagene). The sequence of primers containing multi-sites mutation was designed as follows: […]
The E. coli DH5α competent cells were transformed with mutated plasmid, and positive colonies were picked up through ampicillin selection. The mutation result was confirmed by sequence analysis.
(2) BAF3-TPOR stable transfected cell line: the following method was used to construct the BaF3 cell which stably over-expressed functional human TPOR. The successfully mutated EX-B0010-M02 plasmid ([…]) which expressed human TPOR and screening gene neomycin was transfected into wild-type BaF3 cells (1×10^7) by electroporation at 250V for 18 ms using an electric pulse generator (Electro Square Porator ECM830, BTX Division of Genetronic, Inc. US). The stable transfected cells BAF3-TPOR were selected with G418 (Gibco, US), then incubated in RPMI1640 medium plus 10% FBS (Gibco, US), […] G418, 5 ng/mL, rmIL-3 (Chemicon, US).
(1) Washing cells by centrifugation: a suitable amount of cell suspension was centrifuged at 1000 rpm for 5 minutes, and the supernatant was discarded. 10 mL of cell culture media without IL-3 was added. Then the resulting cell suspension was centrifuged at 1000 rpm for 5 minutes, and the supernatant was discarded.
(2) 1 mL of cell culture media without IL-3 was added to beat upon them to equality, and the number of a suitable amount of cell suspension was counted after dilution.
(3) According to the result of the cell counting, a cell suspension in a concentration of 100,000 cell/mL was prepared.
(4) 100 μL of cell suspension was transferred to each well of 96-well culture plate, and there were 3 parallel wells, that is, there were a blank control group (B), a negative control group (N), a positive control group of TPO (P) and a test compound group (S).
(5) The test compound was dissolved in DMSO to prepare a 10 mM stock solution, and then the solution was diluted with RPMI 1640 medium into a series of test samples at different concentration: 30 μM, 10 μM, 3 μM, 1 μM, 0.3 μM, 0.1 μM, 0.03 μM, 0.01 μM, 0.003 μM, 0.001 μM.
(6) 10 μL of test compound solution was transferred to each well respectively; 1 μL of rhTPO (10 ng/mL) was added to positive control well.
(7) The plates were incubated in an incubator at 5% CO2 and 37° C. for 24 hours.
(8) After incubation, 10 μL of CCK-8 solution was added to each well and the plates were incubated in the incubator for another 24 hours.
(9) OD value was detected at 450 nm by VICTORS (Perkin Elmer 1420-120) plate reader.
(1) The proliferation rate was calculated as follows: Rate=[(S−B)/(P−B)]*100%
S: OD value of wells which contain test compound.
B: OD value of blank control wells
P: OD value of positive control wells
(2) The EC50 value was calculated by Origin 7.0 software.

Where [3] appears, read: 0.1% hydrochloric acid, simulated gastric fluid, 0.1% hydrochloric acid, read-out: solubility.
[4] abbreviates: methanol, organic solvent or mixture, methanol, read-out: solubility.

`CC1=NN(c2ccc3c(c2)CCC3)C(=O)/C1=N\Nc1cccc(-c2cccc(C(=O)O)c2)c1O.NCCO.NCCO` [Example 1, (Z)-2′-hydroxy-3′-[N′-(1-indan-5-yl-3-methyl-5-oxo-1,5-dihydro-pyrazol-4-ylidene)-hydrazino]-biphenyl-3-carboxylic acid bis-(ethanolamine)]: in series [1], the Vd/F is 0.45 ± 0.32 L/kg, the AUC is 501 ± 178 µg·h/mL, the CL/F is 1.63 mL/min/kg and the half-life was 5.39 ± 0.94 h. For the same molecule, in series [1], the MRT amounted to 4.96 ± 1.16 h, the Cmax worked out at 90100 ± 35300 ng/mL and the Tmax is 3.25 ± 1.5 h. Further, the solubility in series [2] (setting [3]) was under 1 µg/mL. In addition, in series [2] (setting [4]), the solubility was 1470 µg/mL. Besides, the solubility in series [2] (water, read-out: solubility) was 3 µg/mL. The molecule also came in with an EC50 at human TPOR of 150 nM.

Take `CC1=NN(c2ccc3c(c2)CCC3)C(=O)/C1=N\Nc1cccc(-c2cccc(C(=O)O)c2)c1O` [Example 1j, (Z)-2′-hydroxy-3′-[N′-(1-indan-5-yl-3-methyl-5-carbonyl-1,5-dihydro-pyrazol-4-ylidene)-hydrazino]-biphenyl-3-carboxylic acid]: in series [1], the “Area Under Curve AUC” value is 131 ± 47 µg·h/mL, the “Clearance CL/F” value turned out to be 0.817 ± 0.583 mL/min/kg, the “Half-Life t½” value was 4.21 ± 1.86 h and the “Mean Residence Time MRT” value came to 3.89 ± 1.78 h. Also, in series [1], the “Plasma Conc. Cmax” value was determined as 29050 ± 11440 ng/mL and the “Time to peak Tmax” value was 4.00 ± 1.41 h. Moreover, the solubility in series [2] (setting [3]) is under 1 µg/mL. Also, the solubility in series [2] (methanol) was under 1 µg/mL. Moreover, in series [2] (water), the solubility was under 1 µg/mL. Also, the EC50 on human TPOR turned out to be 200 nM.

For `CC1=NN(c2ccc3c(c2)C(C)(C)CC3)C(=O)/C1=N\Nc1cccc(-c2ccc(C(=O)O)o2)c1O.NCCO.NCCO` [Example 4, (Z)-5-(3-{N′-[1-(3,3-dimethyl-indan-5-yl)-3-methyl-5-oxo-1,5-dihydro-pyrazol-4-ylidene]-hydrazino}-2-hydroxy-phenyl)-furan-2-carboxylic acid bis-(ethanolamine)], in series [1], the Vd/F came to 58.1 ± 47.7 L/kg, the AUC was 19 ± 12.6 µg·h/mL, the CL/F was 40.3 mL/min/kg and the half-life is 27 ± 31.5 h. In series [1], the MRT is 38.3 ± 36.5 h, the Cmax came to 2320 ± 1800 ng/mL and the Tmax came out at 2.25 ± 2.47 h. For the same molecule, the solubility in series [2] (setting [3]) is 24 µg/mL. The solubility in series [2] (setting [4]) was determined as 19000 µg/mL. For the same molecule, the solubility in series [2] (water, read-out: solubility) was 2900 µg/mL. The same molecule yielded an EC50 on human TPOR of 25 nM.

As to `CC1=NN(c2ccc3c(c2)C(C)(C)CC3)C(=O)/C1=N\Nc1cccc(-c2ccc(C(=O)O)o2)c1O` [Example 6, (Z)-5-(3-{N′-[1-(3,3-dimethyl-indan-5-yl)-3-methyl-5-oxo-1,5-dihydro-pyrazol-4-ylidene]-hydrazino}-2-hydroxy-phenyl)-furan-2-carboxylic acid bis-(piperazine)], in series [1], the “Area Under Curve AUC” value is 175 ± 41 µg·h/mL, the “Clearance CL/F” value was 5 ± 1.4 mL/min/kg, the “Half-Life t½” value amounted to 45.0 ± 70.3 h and the “Mean Residence Time MRT” value amounted to 60.4 ± 90.2 h. Moreover, in series [1], the “Plasma Conc. Cmax” value worked out at 13000 ± 6500 ng/mL and the “Time to peak Tmax” value stood at 2.5 ± 1.0 h. This molecule also displayed a solubility in series [2] (0.1% hydrochloric acid) of under 1 µg/mL. In series [2] (methanol), this molecule registered a solubility of 3009 µg/mL (≈ 6370 µM). In addition, in series [2] (water), the solubility was 1 µg/mL (≈ 2.12 µM). The molecule also registered an EC50 on human TPOR of 36 nM.

In the case of `CC1=NN(c2ccc3c(c2)C(C)(C)CC3)C(=O)/C1=N\Nc1cccc(-c2ccc(C(=O)O)o2)c1O` [Example 4h, (Z)-5-(3-{N′-[1-(3,3-dimethyl-indan-5-yl)-3-methyl-5-oxo-1,5-dihydro-pyrazol-4-ylidene]-hydrazino}-2-hydroxy-phenyl)-furan-2-carboxylic acid], in series [1], the “Area Under Curve AUC” value amounted to 9.5 ± 8.3 µg·h/mL, the “Clearance CL/F” value turned out to be 54.3 ± 32.2 mL/min/kg, the “Half-Life t½” value is 19.8 ± 16.4 h and the “Mean Residence Time MRT” value amounted to 31.7 ± 24.6 h. In series [1], the “Plasma Conc. Cmax” value stood at 1290 ± 380 ng/mL and the time to peak (Tmax) is 2.5 ± 1 h. For the same molecule, the solubility in series [2] (setting [3]) was under 1 µg/mL. Besides, in series [2] (methanol), the solubility is under 1 µg/mL. Besides, the solubility in series [2] (water, read-out: solubility) was under 1 µg/mL. In addition, it took 32 nM to reach a half-maximal effect on human TPOR (EC50).
